Reference: US20240150377A1, “MODULATORS OF CYSTIC FIBROSIS TRANSMEMBRANE CONDUCTANCE REGULATOR” (VERTEX PHARMACEUTICALS INCORPORATED, priority 2020, published 2024)
Like-named read-outs stand apart in the source and are kept apart here.

Tests used:
CFTR = molecular target: T1, CFTR (Homo sapiens, UniProt P13569, DEL508-508); assay: HBE assay: Ussing chamber assay of CFTR-mediated short-circuit currents; type: cell-based; details: for EC50: read-out: HBE EC50; for activation at 10 µM: read-out: HBE Activity at 10 μM (%)
T1 construct: endogenous in cells; host or cells: primary human bronchial epithelial cells from CF subjects (F508del/MF-HBE), differentiated at air-liquid interface
Summary of the method: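 CFTR-mediated Isc (μA/cm²) equals the peak response to apical 20 μM forskolin minus the residual after a 20 μM each BPO/GlyH-101/CFTR inhibitor 172 cocktail, recorded in Ussing chambers at Vhold 0 mV, 37 °C, pH 7.4, with 30 μM apical amiloride. Cells were F508del/MF HBE cultures preincubated 18-24 h with corrector (concentration range or 10 μM) plus 1 μM ivacaftor in 20% human serum.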

[1] = amide bond, 13-membered ring
[2] = Table 11, read-out: HBE Max Activity (%)
[3] = Table 10, read-out: HBE Max activity (%)

T1 sequence (P13569 with tags, fused parts or gaps DEL508-508): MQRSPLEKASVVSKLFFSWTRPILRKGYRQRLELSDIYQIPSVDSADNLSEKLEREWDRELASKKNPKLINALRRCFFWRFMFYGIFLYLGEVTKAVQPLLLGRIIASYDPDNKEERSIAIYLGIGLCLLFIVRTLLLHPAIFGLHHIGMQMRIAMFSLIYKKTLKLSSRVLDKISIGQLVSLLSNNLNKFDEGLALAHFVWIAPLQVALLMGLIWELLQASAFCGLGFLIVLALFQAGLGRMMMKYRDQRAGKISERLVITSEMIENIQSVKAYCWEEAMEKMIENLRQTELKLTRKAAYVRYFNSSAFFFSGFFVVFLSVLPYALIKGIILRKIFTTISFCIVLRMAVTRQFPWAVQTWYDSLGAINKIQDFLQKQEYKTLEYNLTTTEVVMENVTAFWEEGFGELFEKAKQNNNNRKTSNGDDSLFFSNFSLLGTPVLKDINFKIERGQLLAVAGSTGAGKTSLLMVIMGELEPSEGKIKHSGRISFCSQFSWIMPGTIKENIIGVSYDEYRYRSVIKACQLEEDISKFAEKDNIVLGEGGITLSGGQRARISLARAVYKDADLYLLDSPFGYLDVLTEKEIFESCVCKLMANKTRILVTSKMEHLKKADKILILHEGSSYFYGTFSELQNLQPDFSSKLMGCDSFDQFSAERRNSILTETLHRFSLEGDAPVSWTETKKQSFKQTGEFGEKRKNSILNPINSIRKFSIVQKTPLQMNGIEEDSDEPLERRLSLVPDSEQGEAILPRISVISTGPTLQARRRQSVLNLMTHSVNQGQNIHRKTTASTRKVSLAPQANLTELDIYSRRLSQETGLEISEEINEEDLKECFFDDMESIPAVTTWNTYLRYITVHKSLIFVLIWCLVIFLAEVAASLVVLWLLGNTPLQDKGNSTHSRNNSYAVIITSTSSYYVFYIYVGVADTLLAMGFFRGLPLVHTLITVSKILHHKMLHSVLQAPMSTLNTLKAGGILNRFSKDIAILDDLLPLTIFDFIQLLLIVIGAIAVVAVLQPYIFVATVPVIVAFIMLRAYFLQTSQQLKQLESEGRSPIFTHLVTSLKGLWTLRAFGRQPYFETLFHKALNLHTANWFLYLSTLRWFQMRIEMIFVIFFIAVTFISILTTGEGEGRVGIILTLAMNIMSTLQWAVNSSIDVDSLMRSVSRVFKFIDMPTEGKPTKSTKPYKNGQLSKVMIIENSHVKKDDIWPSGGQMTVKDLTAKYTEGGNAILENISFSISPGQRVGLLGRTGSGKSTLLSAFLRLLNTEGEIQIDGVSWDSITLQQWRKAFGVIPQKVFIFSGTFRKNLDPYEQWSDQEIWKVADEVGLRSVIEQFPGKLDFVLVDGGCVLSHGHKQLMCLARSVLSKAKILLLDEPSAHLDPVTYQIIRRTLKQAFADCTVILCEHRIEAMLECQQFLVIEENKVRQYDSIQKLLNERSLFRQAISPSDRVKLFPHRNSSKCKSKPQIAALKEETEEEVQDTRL

EC50 (CFTR; Table 11) | Emax (CFTR; [2]) | EC50 (CFTR; Table 10) | Emax (CFTR; [3]) | Structure (SMILES) | also measured
< 1000 nM | > 60% | – | – | Cc1cccc(C)c1-c1cc2nc(n1)NS(=O)(=O)c1cccc(c1)C(=O)N(Cc1cc(C3CC3)no1)[C@H](CC(C)(C)C)CO2 [Compound 137, (11R)-12-[(3-Cyclopropyl-1,2-oxazol-5-yl)methyl]-6-(2,6-dimethylphenyl)-11-(2,2-dimethylpropyl)-9-oxa-2λ^6-thia-3,5,12,19-tetraazatricyclo[12.3.1.14,8]nonadeca-1(17),4(19),5,7,14(18),15-hexaene-2,2,13-trione] | ring closure, yield after HPLC ([1]; from Cc1cccc(C)c1-c1cc(OC[C@@H](CC(C)(C)C)NCc2cc(C3CC3)no2)nc(NS(=O)(=O)c2cccc(C(=O)O)c2)n1, HATU/TEA, DMF, 15.4 mM, 2.0 h): 44%
– | – | < 1000 nM | > 60% | COCCN(C)c1cnc(CN2C(=O)c3cccc(c3)S(=O)(=O)Nc3nc(cc(-c4c(C)cccc4C)n3)OC[C@H]2CC(C)(C)C)nc1 [Compound 114, (11R)-6-(2,6-Dimethylphenyl)-11-(2,2-dimethylpropyl)-12-[[5-[2-methoxyethyl(methyl)amino]pyrimidin-2-yl]methyl]-2,2-dioxo-9-oxa-2λ^6-thia-3,5,12,19-tetrazatricyclo[12.3.1.14,8]nonadeca-1(18),4(19),5,7,14,16-hexaen-13-one] | ring closure, yield after HPLC ([1]; from 3-[[4-(2,6-dimethylphenyl)-6-[(2R)-2-[[5-[2-methoxyethyl(methyl)amino]pyrimidin-2-yl]methylamino]-4,4-dimethyl-pentoxy]pyrimidin-2-yl]sulfamoyl]benzoic acid (Dihydrochloride salt), HATU/DIEA, DMF, 10.5 mM, 25.0 °C): 53%
< 1000 nM | > 60% | – | – | Cc1cc(C)nc(CN2C(=O)c3cccc(c3)S(=O)(=O)Nc3nc(cc(-c4c(C)cccc4C)n3)OC[C@H]2CC(C)(C)C)c1 [Compound 55, (11R)-6-(2,6-Dimethylphenyl)-11-(2,2-dimethylpropyl)-12-[(4,6-dimethylpyridin-2-yl)methyl]-9-oxa-2λ^6-thia-3,5,12,19-tetraazatricyclo[12.3.1.14,8]nonadeca-1(18),4,6,8(19),14,16-hexaene-2,2,13-trione] | ring closure, yield after HPLC ([1]; from 3-[[4-(2,6-dimethylphenyl)-6-[(2R)-2-[(4,6-dimethyl-2-pyridyl)methylamino]-4,4-dimethyl-pentoxy]pyrimidin-2-yl]sulfamoyl]benzoic acid (Dihydrochloride salt), CDMT/NMM, DMF, 42.2 mM, 25.0 °C): 44%
– | – | < 1000 nM | > 60% | Cc1cccc(C)c1-c1cc2nc(n1)NS(=O)(=O)c1cccc(c1)C(=O)N(Cc1cc(C(C)(C)C)[nH]n1)[C@H](CC(C)(C)C)CO2 [Compound 134, (11R)-12-[(5-tert-Butyl-1H-pyrazol-3-yl)methyl]-6-(2,6-dimethylphenyl)-11-(2,2-dimethylpropyl)-2,2-dioxo-9-oxa-2λ^6-thia-3,5,12,19-tetrazatricyclo[12.3.1.14,8]nonadeca-1(18),4(19),5,7,14,16-hexaen-13-one] | ring closure, yield after HPLC ([1]; from Cc1cccc(C)c1-c1cc(OC[C@@H](CC(C)(C)C)NCc2cc(C(C)(C)C)[nH]n2)nc(NS(=O)(=O)c2cccc(C(=O)O)c2)n1, CDMT/NMM, DMF, 3.0 h, 2 steps): 20%
< 1000 nM | > 60% | – | – | Cc1cccc(C)c1-c1cc2nc(n1)NS(=O)(=O)c1cccc(c1)C(=O)N(Cc1nccc(C(F)(F)F)n1)[C@H](CC(C)(C)C)CO2 [Compound 122, (11R)-6-(2,6-Dimethylphenyl)-11-(2,2-dimethylpropyl)-12-{[4-(trifluoromethyl)pyrimidin-2-yl]methyl}-9-oxa-2λ^6-thia-3,5,12,19-tetraazatricyclo[12.3.1.14,8]nonadeca-1(17),4,6,8(19),14(18),15-hexaene-2,2,13-trione] | ring closure, yield after HPLC ([1]; from Cc1cccc(C)c1-c1cc(OC[C@@H](CC(C)(C)C)NCc2nccc(C(F)(F)F)n2)nc(NS(=O)(=O)c2cccc(C(=O)O)c2)n1, CDMT/NMM, DMF, 27.3 mM): 48%
– | – | < 1000 nM | > 60% | Cc1cccc(C)c1-c1cc2nc(n1)NS(=O)(=O)c1cccc(c1)C(=O)N(Cc1ccc(N3CCOCC3)nn1)[C@H](CC(C)(C)C)CO2 [Compound 111, (11R)-6-(2,6-Dimethylphenyl)-11-(2,2-dimethylpropyl)-12-[(6-morpholinopyridazin-3-yl)methyl]-2,2-dioxo-9-oxa-2λ^6-thia-3,5,12,19-tetrazatricyclo[12.3.1.14,8]nonadeca-1(18),4(19),5,7,14,16-hexaen-13-one] | ring closure, yield after HPLC ([1]; from Cc1cccc(C)c1-c1cc(OC[C@@H](CC(C)(C)C)NCc2ccc(N3CCOCC3)nn2)nc(NS(=O)(=O)c2cccc(C(=O)O)c2)n1, CDMT/NMM, DMF, 25.0 °C, 3.0 h, 2 steps): 10%

Continued, molecule first:

Structure (SMILES) | EC50 (CFTR; Table 11) | Emax (CFTR; [2]) | EC50 (CFTR; Table 10) | Emax (CFTR; [3]) | also measured
Cc1cccc(C)c1-c1cc2nc(n1)NS(=O)(=O)c1cccc(c1)C(=O)N(Cc1ccc(OC3CCCC3)cn1)[C@H](CC(C)(C)C)CO2 [Compound 49, (11R)-12-[[5-(Cyclopentoxy)-2-pyridyl]methyl]-6-(2,6-dimethylphenyl)-11-(2,2-dimethylpropyl)-2,2-dioxo-9-oxa-2λ^6-thia-3,5,12,19-tetrazatricyclo[12.3.1.14,8]nonadeca-1(18),4(19),5,7,14,16-hexaen-13-one] | – | – | 1000 to 3000 nM | > 60% | ring closure, yield after HPLC ([1]; from 3-[[4-[(2R)-2-[[5-(cyclopentoxy)-2-pyridyl]methylamino]-4,4-dimethyl-pentoxy]-6-(2,6-dimethylphenyl)pyrimidin-2-yl]sulfamoyl]benzoic acid (Dihydrochloride salt), HATU/DIEA, DMF, 28.0 mM, 25.0 °C): 49%
Cc1cc(N2CCOCC2)cnc1CN1C(=O)c2cccc(c2)S(=O)(=O)Nc2nc(cc(-c3c(C)cccc3C)n2)OC[C@H]1CC(C)(C)C [Compound 57, (11R)-6-(2,6-Dimethylphenyl)-11-(2,2-dimethylpropyl)-12-[(3-methyl-5-morpholino-2-pyridyl)methyl]-2,2-dioxo-9-oxa-2λ^6-thia-3,5,12,19-tetrazatricyclo[12.3.1.14,8]nonadeca-1(18),4(19),5,7,14,16-hexaen-13-one] | – | – | < 1000 nM | > 60% | ring closure, yield after HPLC ([1]; from Cc1cc(N2CCOCC2)cnc1CN[C@@H](COc1cc(-c2c(C)cccc2C)nc(NS(=O)(=O)c2cccc(C(=O)O)c2)n1)CC(C)(C)C, CDMT/NMM, DMF, 25.0 °C, 3.5 h, 2 steps): 19%
Cc1cccc(C)c1-c1cc2nc(n1)NS(=O)(=O)c1cccc(c1)C(=O)N(Cc1cn(C)nn1)[C@H](CC(C)(C)C)CO2 [Compound 140, (11R)-6-(2,6-Dimethylphenyl)-11-(2,2-dimethylpropyl)-12-[(1-methyltriazol-4-yl)methyl]-2,2-dioxo-9-oxa-2λ^6-thia-3,5,12,19-tetrazatricyclo[12.3.1.14,8]nonadeca-1(18),4(19),5,7,14,16-hexaen-13-one] | – | – | – | – | activation at 10 µM (CFTR; Table 11): > 60%; ring closure, yield after HPLC ([1]; from Cc1cccc(C)c1-c1cc(OC[C@@H](CC(C)(C)C)NCc2cn(C)nn2)nc(NS(=O)(=O)c2cccc(C(=O)O)c2)n1, HATU/DIEA, DMF, 29.1 mM, 15.0 h): 25%
Cc1cccc(OCc2ccccc2)c1-c1cc2nc(n1)NS(=O)(=O)c1cccc(c1)C(=O)N(Cc1ccc(N3CCOCC3)cn1)[C@H](CC(C)(C)C)CO2 [Compound 7, (11R)-6-(2-Benzyloxy-6-methyl-phenyl)-11-(2,2-dimethylpropyl)-12-[(5-morpholino-2-pyridyl)methyl]-2,2-dioxo-9-oxa-2λ^6-thia-3,5,12,19-tetrazatricyclo[12.3.1.14,8]nonadeca-1(18),4(19),5,7,14,16-hexaen-13-one] | < 1000 nM | > 60% | – | – | activation at 10 µM (CFTR; Table 11): > 60%; ring closure, yield after HPLC ([1]; from Cc1cccc(OCc2ccccc2)c1-c1cc(OC[C@@H](CC(C)(C)C)NCc2ccc(N3CCOCC3)cn2)nc(NS(=O)(=O)c2cccc(C(=O)O)c2)n1, HATU/TBTU/DMTMM/DIEA, DCM, 3.76 mM, 25.0 °C, 1.0 h): 22%
Cc1cccc(C(C)C)c1-c1cc2nc(n1)NS(=O)(=O)c1cccc(c1)C(=O)N(Cc1ncc(N3CCOCC3)cn1)[C@H](CC(C)(C)C)CO2 [Compound 6, (11R)-11-(2,2-Dimethylpropyl)-6-[2-methyl-6-(propan-2-yl)phenyl]-12-{[5-(morpholin-4-yl)pyrimidin-2-yl]methyl}-9-oxa-2λ^6-thia-3,5,12,19-tetraazatricyclo[12.3.1.14,8]nonadeca-1(17),4(19),5,7,14(18),15-hexaene-2,2,13-trione] | < 1000 nM | > 60% | – | – | ring closure, yield after HPLC ([1]; from Cc1cccc(C(C)C)c1-c1cc(OC[C@@H](CC(C)(C)C)NCc2ncc(N3CCOCC3)cn2)nc(NS(=O)(=O)c2cccc(C(=O)O)c2)n1, CDMT/NMM, DMF, 54.0 mM, 25.0 °C, 60.0 h, 2 steps): 21%
Cc1cccc(C)c1-c1cc2nc(n1)NS(=O)(=O)c1cccc(c1)C(=O)N(Cc1ccc(N3CCOCC3)cn1)[C@H](CC1CC3(CCC3)C1)CO2 [Compound 3, (11R)-6-(2,6-Dimethylphenyl)-12-[(5-morpholino-2-pyridyl)methyl]-2,2-dioxo-11-(spiro[3.3]heptan-2-ylmethyl)-9-oxa-2λ^6-thia-3,5,12,19-tetrazatricyclo[12.3.1.14,8]nonadeca-1(18),4(19),5,7,14,16-hexaen-13-one] | – | – | < 1000 nM | > 60% | ring closure, yield after HPLC ([1]; from Cc1cccc(C)c1-c1cc(OC[C@@H](CC2CC3(CCC3)C2)NCc2ccc(N3CCOCC3)cn2)nc(NS(=O)(=O)c2cccc(C(=O)O)c2)n1, CDMT/NMM, DMF, 25.0 °C, 2.5 h, 2 steps): 11%
